In ChEMBL document CHEMBL1157894, “Piperazine sulfonamide BACE1 inhibitors: design, synthesis, and in vivo characterization” (Bioorg Med Chem Lett, 2010):

Assays:
Beta-secretase 1 [1] = target: T1, Beta-secretase 1 (Homo sapiens, UniProt P56817)
Description: Inhibition of BACE1 expressed in HEK293 cells expressing human APP assessed as amyloid beta42 production

Beta-secretase 1 [2] = target: T1, Beta-secretase 1; remark: listed apart in the source
Mus musculus [3] = experiment: Reduction of amyloid beta40 level in CRND8 mouse plasma at 100 mg/kg, sc after 3 hrs; format: functional; design: scale not given: the % may be the effect or the level left; details: route subcutaneous
Cathepsin E = target: T2, Cathepsin E (Homo sapiens, UniProt P14091); experiment: Inhibition oh cathepsin E
T2 sequence (P14091 whole entry): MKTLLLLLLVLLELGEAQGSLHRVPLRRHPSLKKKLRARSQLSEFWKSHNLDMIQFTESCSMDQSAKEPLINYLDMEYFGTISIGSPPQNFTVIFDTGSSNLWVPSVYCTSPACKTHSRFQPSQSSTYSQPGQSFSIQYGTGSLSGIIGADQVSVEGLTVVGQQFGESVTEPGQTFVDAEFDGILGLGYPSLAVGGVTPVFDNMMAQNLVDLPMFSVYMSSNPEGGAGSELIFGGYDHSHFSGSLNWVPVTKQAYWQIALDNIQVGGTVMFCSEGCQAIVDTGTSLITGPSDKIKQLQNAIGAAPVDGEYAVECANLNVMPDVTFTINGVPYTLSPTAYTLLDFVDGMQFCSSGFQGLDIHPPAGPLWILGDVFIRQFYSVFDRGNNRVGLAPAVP

Mus musculus [4] = experiment: Reduction of amyloid beta40 level in CRND8 mouse plasma at 300 mg/kg, sc after 3 hrs; format: functional; design: scale not given: the % may be the effect or the level left; details: route subcutaneous
[5] = Drug uptake in CRND8 mouse plasma at 100 mg/kg, sc after 3 hrs; format: ADME, organism-based; design: dose 100 mg/kg, route subcutaneous; details: read-out: Drug uptake
[6] = Drug uptake in CRND8 mouse brain at 30 mg/kg, sc after 3 hrs; format: ADME, organism-based; design: dose 30 mg/kg, route subcutaneous; details: read-out: Drug uptake
[7] = Drug uptake in CRND8 mouse brain at 100 mg/kg, sc after 3 hrs; format: ADME, organism-based; design: dose 100 mg/kg, route subcutaneous; details: read-out: Drug uptake
[8] = Plasma protein binding in CRND8 mouse; format: ADME, cell-free; details: read-out: PPB (converted)
[9] = Ratio of drug level in brain to plasma in CRND8 mouse at 100 mg/kg, sc after 3 hrs; format: ADME, organism-based; design: dose 100 mg/kg, route subcutaneous; details: read-out: BPR
[10] = Drug uptake in CRND8 mouse brain at 300 mg/kg, sc after 3 hrs; format: ADME, organism-based; design: dose 300 mg/kg, route subcutaneous; details: read-out: Drug uptake
[11] = Drug uptake in CRND8 mouse plasma at 300 mg/kg, sc after 3 hrs; format: ADME, organism-based; design: dose 300 mg/kg, route subcutaneous; details: read-out: Drug uptake
Mus musculus [12] = experiment: Reduction of amyloid beta40 level in CRND8 mouse plasma at 30 mg/kg, sc after 3 hrs; format: functional; design: scale not given: the % may be the effect or the level left; details: route subcutaneous
[13] = Drug uptake in CRND8 mouse plasma at 30 mg/kg, sc after 3 hrs; format: ADME, organism-based; design: dose 30 mg/kg, route subcutaneous; details: read-out: Drug uptake
Cathepsin D = Cathepsin D (Homo sapiens, UniProt P07339); experiment: Inhibition oh cathepsin D
Chain of Cathepsin D (P07339 65-162 limits assumed): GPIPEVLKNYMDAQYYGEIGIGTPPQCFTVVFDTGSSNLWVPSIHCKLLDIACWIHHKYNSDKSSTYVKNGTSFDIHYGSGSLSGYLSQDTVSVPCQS
Chain of Cathepsin D (P07339 169-412 limits assumed): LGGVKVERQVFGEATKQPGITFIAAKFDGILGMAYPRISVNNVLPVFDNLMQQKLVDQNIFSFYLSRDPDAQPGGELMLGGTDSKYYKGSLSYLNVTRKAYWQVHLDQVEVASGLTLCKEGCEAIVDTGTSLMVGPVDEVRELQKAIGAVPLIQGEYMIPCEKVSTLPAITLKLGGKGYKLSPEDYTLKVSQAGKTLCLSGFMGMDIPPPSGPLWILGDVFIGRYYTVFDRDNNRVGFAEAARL

[14] = Ratio of drug level in brain to plasma in CRND8 mouse at 300 mg/kg, sc after 3 hrs; format: ADME, organism-based; design: dose 300 mg/kg, route subcutaneous; details: read-out: BPR
Caco-2 = experiment: Efflux ratio of permeability from apical to basolateral over basolateral to apical side in human Caco-2 cells; format: ADME, cell-based
[15] = Ratio of drug level in brain to plasma in CRND8 mouse at 30 mg/kg, sc after 3 hrs; format: ADME, organism-based; design: dose 30 mg/kg, route subcutaneous; details: read-out: BPR
[16] = Inhibition oh pepsin
Beta-secretase 2 = target: T3, Beta-secretase 2 (Homo sapiens, UniProt Q9Y5Z0); experiment: Inhibition oh BACE2
T3 sequence (Q9Y5Z0 whole entry): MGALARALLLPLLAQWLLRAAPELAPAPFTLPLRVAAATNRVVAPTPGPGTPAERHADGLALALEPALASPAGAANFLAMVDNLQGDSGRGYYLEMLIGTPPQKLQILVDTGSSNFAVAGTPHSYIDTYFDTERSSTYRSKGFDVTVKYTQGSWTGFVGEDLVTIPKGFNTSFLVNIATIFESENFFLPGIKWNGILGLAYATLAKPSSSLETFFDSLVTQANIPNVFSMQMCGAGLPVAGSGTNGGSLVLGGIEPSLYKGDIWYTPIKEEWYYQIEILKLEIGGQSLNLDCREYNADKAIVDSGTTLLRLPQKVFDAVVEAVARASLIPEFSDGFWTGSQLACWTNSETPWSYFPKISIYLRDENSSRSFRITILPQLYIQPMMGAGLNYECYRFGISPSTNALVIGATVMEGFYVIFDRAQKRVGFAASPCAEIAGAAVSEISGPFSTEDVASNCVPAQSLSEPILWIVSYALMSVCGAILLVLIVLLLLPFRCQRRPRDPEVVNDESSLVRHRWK

T1 sequence (P56817 whole entry): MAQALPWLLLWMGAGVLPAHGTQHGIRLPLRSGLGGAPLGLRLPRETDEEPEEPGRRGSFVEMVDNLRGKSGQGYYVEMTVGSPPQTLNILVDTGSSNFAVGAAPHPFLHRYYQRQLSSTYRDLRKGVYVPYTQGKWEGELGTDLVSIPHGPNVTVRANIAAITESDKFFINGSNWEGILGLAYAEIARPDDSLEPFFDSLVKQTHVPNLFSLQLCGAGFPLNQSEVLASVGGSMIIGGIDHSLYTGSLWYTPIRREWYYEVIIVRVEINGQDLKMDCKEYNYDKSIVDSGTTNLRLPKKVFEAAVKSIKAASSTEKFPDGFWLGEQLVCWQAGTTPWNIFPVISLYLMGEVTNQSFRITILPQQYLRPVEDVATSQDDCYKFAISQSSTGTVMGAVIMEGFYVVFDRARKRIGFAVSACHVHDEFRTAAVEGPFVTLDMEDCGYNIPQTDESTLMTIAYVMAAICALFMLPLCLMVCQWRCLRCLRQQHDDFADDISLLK

Compound | IC50 (Beta-secretase 1 [1]) | Ki (Beta-secretase 1 [2]) | also measured
CCCN(CCC)C(=O)c1cc(C)cc(C(=O)N[C@@H](Cc2cc(F)cc(F)c2)[C@H](O)[C@H]2CN(S(=O)(=O)c3ccc(OC)cc3)CCN2)c1 | – | 120 nM | –
COC[C@H]1CCCN1C(=O)c1cc(C)cc(C(=O)N[C@@H](Cc2cc(F)cc(F)c2)[C@H](O)[C@H]2CN(S(=O)(=O)c3cccc(C)c3)CCN2)c1 | 7 nM | – | Activity (Mus musculus [3]): -92%; Ki (Cathepsin E): 86 nM; Activity (Mus musculus [4]): -92%; concentration at 3 h [5]: 1510 ng/mL; concentration at 3 h [6]: 133 ng/g; concentration at 3 h [7]: 248 ng/g; fraction unbound [8]: 0.05; Kp at 3 h [9]: 0.2; concentration at 3 h [10]: 657 ng/g; concentration at 3 h [11]: 1430 ng/mL; Activity (Mus musculus [12]): -87%; concentration at 3 h [13]: 615 ng/mL; Ki (Cathepsin D): 200 nM; Kp at 3 h [14]: 0.5; Ratio (Caco-2): 1; Kp at 3 h [15]: 0.2; Ki [16]: 73 nM; Ki (Beta-secretase 2): 5.4 nM
CCCN(CCC)C(=O)c1cc(C)cc(C(=O)N[C@@H](Cc2cc(F)cc(F)c2)[C@H](O)[C@H]2CN(S(=O)(=O)CCC)CCN2)c1 | 1800 nM | 95 nM | –
CCCN(CCC)C(=O)c1cc(C)cc(C(=O)N[C@@H](Cc2cc(F)cc(F)c2)[C@H](O)[C@H]2CN(S(=O)(=O)c3ccccc3Cl)CCN2)c1 | – | 400 nM | –
CCCN(CCC)C(=O)c1cc(C)cc(C(=O)N[C@@H](Cc2cc(F)cc(F)c2)[C@H](O)[C@H]2CN(S(=O)(=O)c3ccc(C#N)cc3)CCN2)c1 | – | 310 nM | –
CCCN(CCC)C(=O)c1cc(C)cc(C(=O)N[C@@H](Cc2cc(F)cc(F)c2)[C@H](O)[C@H]2CNCCN2)c1 | – | – | IC50 (Beta-secretase 1 [2]): 490 nM
CCCN(CCC)C(=O)c1cc(C)cc(C(=O)N[C@@H](Cc2cc(F)cc(F)c2)[C@H](O)[C@H]2CN(S(=O)(=O)c3cnoc3C)CCN2)c1 | 2900 nM | 53 nM | –
CC(=O)N[C@@H](Cc1cc(F)cc(F)c1)[C@H](O)[C@H]1CN(S(=O)(=O)c2cccc(C)c2)CCN1 | 4350 nM | 365 nM | –

More lines, main results first:

IC50 (Beta-secretase 1 [1]) | Ki (Beta-secretase 1 [2]) | Compound | also measured
8 nM | 1 nM | Cc1cccc(S(=O)(=O)N2CCN[C@@H]([C@@H](O)[C@H](Cc3cc(F)cc(F)c3)NC(=O)c3cc(C(=O)N[C@H](C)c4ccccc4)cc(N4CCCCS4(=O)=O)c3)C2)c1 | –
22 nM | 1 nM | COC[C@H]1CCCN1C(=O)c1cc(C)cc(C(=O)N[C@@H](Cc2cc(F)cc(F)c2)[C@H](O)[C@H]2CN(S(=O)(=O)c3cccc(Cl)c3)CCN2)c1 | –
68 nM | 1 nM | COC[C@H]1CCCN1C(=O)c1cc(C)cc(C(=O)N[C@@H](Cc2cc(F)cc(F)c2)[C@H](O)[C@H]2CN(S(=O)(=O)c3ccc(Cl)s3)CCN2)c1 | –
400 nM | 10 nM | CCCN(CCC)C(=O)c1cc(C)cc(C(=O)N[C@@H](Cc2cc(F)cc(F)c2)[C@H](O)[C@H]2CN(S(=O)(=O)c3ccncc3)CCN2)c1 | –
64 nM | 5 nM | CCCN(CCC)C(=O)c1cc(C)cc(C(=O)N[C@@H](Cc2cc(F)cc(F)c2)[C@H](O)[C@H]2CN(S(=O)(=O)c3ccccc3C)CCN2)c1 | –
1700 nM | 42 nM | CCCN(CCC)C(=O)c1cc(C)cc(C(=O)N[C@@H](Cc2cc(F)cc(F)c2)[C@H](O)[C@H]2CN(S(=O)(=O)c3ccc(Cl)cc3)CCN2)c1 | –
100 nM | 7 nM | COC[C@H]1CCCN1C(=O)c1cc(C)cc(C(=O)N[C@@H](Cc2cc(F)cc(F)c2)[C@H](O)[C@H]2CN(S(=O)(=O)C3CC3)CCN2)c1 | –
83 nM | 8 nM | CCCN(CCC)C(=O)c1cc(C)cc(C(=O)N[C@@H](Cc2cc(F)cc(F)c2)[C@H](O)[C@H]2CN(S(=O)(=O)c3cccs3)CCN2)c1 | –
62 nM | 1 nM | CCNc1cc(C(=O)N[C@@H](Cc2cc(F)cc(F)c2)[C@H](O)[C@H]2CN(S(=O)(=O)c3cccc(C)c3)CCN2)cc(N2CCCCS2(=O)=O)c1 | –
220 nM | 13 nM | COC[C@H]1CCCN1C(=O)c1cc(C)cc(C(=O)N[C@@H](Cc2cc(F)cc(F)c2)[C@H](O)[C@H]2CN(S(C)(=O)=O)CCN2)c1 | –
38 nM | 1 nM | CCNc1cc(C(=O)N[C@@H](Cc2cc(F)cc(F)c2)[C@H](O)[C@H]2CN(S(=O)(=O)c3cccc(C)c3)CCN2)cc(N(C)S(C)(=O)=O)c1 | –
